Experiments:
Experiment in all cases: Eurofins kinase panel
Type in all cases: biochemical
Conditions in all cases: read-out: Inhibition rate (%)
BrSK1(h) = molecular target: T1, BrSK1(h) (Homo sapiens, UniProt Q8TDC3)
T1 construct: purchased Eurofins (KinaseProfiler)
T1 sequence (Q8TDC3 1-778): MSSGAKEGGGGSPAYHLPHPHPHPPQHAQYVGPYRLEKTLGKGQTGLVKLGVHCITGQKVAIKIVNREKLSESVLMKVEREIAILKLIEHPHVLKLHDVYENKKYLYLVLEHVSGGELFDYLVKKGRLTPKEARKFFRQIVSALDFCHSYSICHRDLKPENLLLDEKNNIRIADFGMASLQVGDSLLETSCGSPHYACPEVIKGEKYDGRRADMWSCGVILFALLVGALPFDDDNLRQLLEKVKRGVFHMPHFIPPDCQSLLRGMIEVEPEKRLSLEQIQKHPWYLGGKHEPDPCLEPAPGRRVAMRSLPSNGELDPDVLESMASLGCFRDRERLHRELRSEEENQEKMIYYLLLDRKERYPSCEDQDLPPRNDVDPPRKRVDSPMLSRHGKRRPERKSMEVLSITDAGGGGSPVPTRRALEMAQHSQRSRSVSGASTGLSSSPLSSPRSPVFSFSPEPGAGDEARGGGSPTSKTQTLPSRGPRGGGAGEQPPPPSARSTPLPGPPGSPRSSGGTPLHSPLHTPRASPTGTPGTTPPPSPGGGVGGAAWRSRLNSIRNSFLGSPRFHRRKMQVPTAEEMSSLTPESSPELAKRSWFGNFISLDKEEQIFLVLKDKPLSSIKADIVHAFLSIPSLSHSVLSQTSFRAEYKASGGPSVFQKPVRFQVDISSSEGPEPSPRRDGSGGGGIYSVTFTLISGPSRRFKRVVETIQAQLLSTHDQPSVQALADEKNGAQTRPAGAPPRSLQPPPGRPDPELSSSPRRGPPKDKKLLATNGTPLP

PEK(h) = molecular target: T2, PEK(h) (Homo sapiens, UniProt Q9NZJ5)
T2 construct: purchased Eurofins (KinaseProfiler)
T2 sequence (Q9NZJ5 30-1116): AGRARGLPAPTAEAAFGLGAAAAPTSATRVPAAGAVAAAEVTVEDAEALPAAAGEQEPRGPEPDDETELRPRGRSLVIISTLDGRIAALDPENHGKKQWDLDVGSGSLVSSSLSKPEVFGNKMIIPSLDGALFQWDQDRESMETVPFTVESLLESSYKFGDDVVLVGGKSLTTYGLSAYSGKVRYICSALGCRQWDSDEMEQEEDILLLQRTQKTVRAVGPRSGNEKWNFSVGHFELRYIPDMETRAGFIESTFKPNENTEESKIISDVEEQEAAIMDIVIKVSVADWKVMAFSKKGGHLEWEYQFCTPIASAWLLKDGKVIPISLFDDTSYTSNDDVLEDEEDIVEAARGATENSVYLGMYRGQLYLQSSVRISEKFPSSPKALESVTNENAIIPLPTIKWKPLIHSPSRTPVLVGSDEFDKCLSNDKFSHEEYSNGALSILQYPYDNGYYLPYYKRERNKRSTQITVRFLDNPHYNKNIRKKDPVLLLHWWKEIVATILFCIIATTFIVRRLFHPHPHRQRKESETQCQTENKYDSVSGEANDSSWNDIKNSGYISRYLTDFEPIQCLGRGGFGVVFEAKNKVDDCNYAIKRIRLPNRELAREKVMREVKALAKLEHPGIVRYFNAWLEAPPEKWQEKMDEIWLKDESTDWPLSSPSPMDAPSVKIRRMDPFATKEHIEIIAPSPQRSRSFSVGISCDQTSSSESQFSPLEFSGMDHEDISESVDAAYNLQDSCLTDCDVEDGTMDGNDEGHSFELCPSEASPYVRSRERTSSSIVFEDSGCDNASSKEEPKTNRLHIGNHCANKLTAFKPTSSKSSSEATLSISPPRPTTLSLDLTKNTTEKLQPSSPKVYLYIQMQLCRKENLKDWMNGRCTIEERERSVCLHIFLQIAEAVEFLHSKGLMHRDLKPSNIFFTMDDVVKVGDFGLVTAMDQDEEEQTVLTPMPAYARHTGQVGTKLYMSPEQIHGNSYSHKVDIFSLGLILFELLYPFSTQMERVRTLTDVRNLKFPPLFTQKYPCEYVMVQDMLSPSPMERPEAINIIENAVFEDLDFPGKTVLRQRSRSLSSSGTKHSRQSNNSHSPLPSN

Yes(h) = molecular target: T3, Yes(h) (Homo sapiens, UniProt P07947)
T3 construct: purchased Eurofins (KinaseProfiler)

ZAP-70(h) = molecular target: T4, ZAP-70(h) (Homo sapiens, UniProt P43403)
T4 construct: purchased Eurofins (KinaseProfiler)
T4 sequence (P43403 1-619): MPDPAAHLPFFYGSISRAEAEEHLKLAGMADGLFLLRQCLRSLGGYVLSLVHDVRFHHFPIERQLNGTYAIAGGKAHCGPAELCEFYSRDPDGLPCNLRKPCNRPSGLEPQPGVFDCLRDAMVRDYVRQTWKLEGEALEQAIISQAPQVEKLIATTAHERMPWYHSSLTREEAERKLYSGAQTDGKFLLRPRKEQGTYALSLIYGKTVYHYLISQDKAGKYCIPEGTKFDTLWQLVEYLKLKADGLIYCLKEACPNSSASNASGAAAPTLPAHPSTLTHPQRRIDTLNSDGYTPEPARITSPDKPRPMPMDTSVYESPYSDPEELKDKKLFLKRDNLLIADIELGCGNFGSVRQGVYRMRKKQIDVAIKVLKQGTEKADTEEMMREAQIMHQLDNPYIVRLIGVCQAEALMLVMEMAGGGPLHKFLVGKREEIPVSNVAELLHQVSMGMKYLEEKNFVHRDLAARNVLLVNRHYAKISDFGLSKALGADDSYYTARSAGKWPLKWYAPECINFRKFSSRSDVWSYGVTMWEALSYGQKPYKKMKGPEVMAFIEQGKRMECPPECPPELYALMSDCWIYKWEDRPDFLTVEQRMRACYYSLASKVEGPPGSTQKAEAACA

T3 sequence (P07947 whole entry): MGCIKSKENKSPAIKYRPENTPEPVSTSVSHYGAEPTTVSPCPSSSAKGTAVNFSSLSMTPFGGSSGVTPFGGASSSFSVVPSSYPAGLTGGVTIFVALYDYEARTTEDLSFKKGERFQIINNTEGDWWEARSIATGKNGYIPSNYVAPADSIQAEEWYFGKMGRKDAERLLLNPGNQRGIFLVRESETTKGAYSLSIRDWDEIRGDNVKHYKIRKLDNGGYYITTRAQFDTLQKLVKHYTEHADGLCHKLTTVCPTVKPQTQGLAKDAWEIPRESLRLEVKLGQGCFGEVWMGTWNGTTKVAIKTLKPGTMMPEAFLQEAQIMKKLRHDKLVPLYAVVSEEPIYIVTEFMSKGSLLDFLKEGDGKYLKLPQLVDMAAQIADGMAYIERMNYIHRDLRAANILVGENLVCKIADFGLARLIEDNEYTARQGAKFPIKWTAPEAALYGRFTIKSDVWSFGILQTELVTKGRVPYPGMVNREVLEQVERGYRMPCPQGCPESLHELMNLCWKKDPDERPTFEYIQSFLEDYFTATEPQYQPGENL

COc1cc(OC)c(Cl)c(-c2ccc3c(NC(=O)c4ccc(N5CCNC(C)(C)C5)cc4)n[nH]c3n2)c1Cl [3D185]
inhibition at 0.01 µM (BrSK1(h); 10 nM): 13% | inhibition at 0.1 µM (BrSK1(h); 100 nM): 11% | inhibition at 1 µM (BrSK1(h); 1000 nM): 11% | inhibition at 0.01 µM (PEK(h); 10 nM): -7% | inhibition at 0.1 µM (PEK(h); 100 nM): 6% | inhibition at 1 µM (PEK(h); 1000 nM): 55% | inhibition at 0.01 µM (Yes(h); 10 nM): 10% | inhibition at 0.1 µM (Yes(h); 100 nM): 66% | inhibition at 1 µM (Yes(h); 1000 nM): 97% | inhibition at 0.01 µM (ZAP-70(h); 10 nM): 12% | inhibition at 0.1 µM (ZAP-70(h); 100 nM): 0% | inhibition at 1 µM (ZAP-70(h); 1000 nM): 8%
